Values of other authors, collected in patent US20260102363A1, “TREATMENT METHOD AND ANTIFUNGAL COMPOSITION” (MOBERG PHARMA AB, priority 2020, published 2026).
Structures can show the parent of a compound that is named as a salt. Where two headings read alike, the source gives them in different places.

Experiments:
[1] = Study 1 of the prescribing information
[2] = Study 2 of the prescribing information
[3] = single reported study, hydrochloride

Compound | Complete Cure (%) (DSO; single reported study) | Mycological Cure (%) (DSO; single reported study) | Complete Cure (%) (DSO; [1]) | Mycological Cure (%) (DSO; [1]) | Complete Cure (%) (DSO; [2]) | Mycological Cure (%) (DSO; [2]) | also measured
CN(C/C=C/C#CC(C)(C)C)Cc1cccc2ccccc12 [Terbinafine (P3058), Terbinafine] | 5.7% | 20.4% |  |  |  |  | 
Cc1cc(C2CCCCC2)n(O)c(=O)c1 [Ciclopirox (Penlac ®), ciclopirox] |  |  | 5.5% | 29% | 8.5% | 36% | 
CN(C/C=C/C#CC(C)(C)C)Cc1cccc2ccccc12 [Terbinafine (oral) (LAMISIL ®), terbinafine hydrochloride] |  |  |  |  |  |  | Complete Cure (%) (DSO; [3]): 38%; Mycological Cure (%) (DSO; [3]): 70%; mycological cure rate (onychomycosis; after 12 weeks): ~15%; mycological cure rate (onychomycosis; at 24 weeks): ~40%; mycological cure rate (onychomycosis; at week 48/52): ~70%
OB1OCc2cc(F)ccc21 [Tavaborole (KERYDIN ®), tavaborole] |  |  | 6.5% | 31% | 9.1% | 35.9% | 
C=C1CCN([C@H](C)[C@](O)(Cn2cncn2)c2ccc(F)cc2F)CC1 [Efinaconazole (JUBLIA ®), efinaconazole] |  |  | 15.2% | 53.4% | 17.8% | 55.2% | 
N#C/C(=C1/SC[C@@H](c2ccc(Cl)cc2Cl)S1)n1ccnc1 [Luliconazole] | 14.9% | 45.4% |  |  |  |  | 
